Experiments:
[1] = tested on: TCDD-induced MCF-7 cells; assay: TCDD-induced MCF-7 cell line cytotoxicity assay, MTT; assay type: cell-based, human; details: for IC50: 96 hours, MTT
Description: (§1) CYP1A1 and CYP1B1 enzyme activity is induced by TCDD (tetrachlorodibenzodioxin (Dioxin)) in breast tumour MCF-7 cells (see, e.g., Sutter et al., 1994). CYP1B1 is expressed in a variety of human tumours, and can be inducible by TCDD in numerous cell types including breast, liver, lung, and kidney (see, e.g., Murray et al., 1997). CYP1B1 is known to catalyse estradiol 4-hydroxylation metabolism. In untreated culture, the constitutive rate of estradiol E2 metabolism in MCF-7 cells is minimal. However, treatment with TCDD causes a marked increase in the rate of E2 metabolism (see, e.g., Spink et al., 1994). […] Therefore the cytotoxicity of compounds in non-induced MCF-7 cells correlates to the cytotoxicity of compounds against normal cells, whilst the cytotoxicity of compounds against TCDD-induced MCF-7 cells correlates to the cytotoxicity of compounds against real tumours that express CYP1B1.
(§2) The cytotoxicity of compounds in non-induced MCF-7 cells correlates to the cytotoxicity of compounds against normal cells, whilst the cytotoxicity of compounds against TCDD-induced MCF-7 cells correlates to the cytotoxicity of compounds against real tumours that express CYP1B1.
Cells were maintained in RPMI 1640 with Glutamax 1 (Life Technologies) with 10% (v/v) heat inactivated foetal calf serum (Hybrimax. Sigma), at 37° C., 5% CO2/95% air with 100% humidity and passaged using trypsin/EDTA. 1×10^3 cells were plated out in 100 μl medium per well of 96-well flat-bottomed plates (Fisher). After 4 hours to allow adherance, 100 μl of medium containing TCDD (British Greyhound Chromatography; 10 μM stock in DMSO (dimethylsulfoxide)) or medium with 0.2% (v/v) DMSO as control was added to each well to give a final concentration of 10 nM TCDD, 0.1% (v/v) DMSO, for 24 hours to allow maximal CYP expression. The medium was then carefully aspirated and 100 μl fresh medium added. Within 30 minutes test compound was added in quadruplicate in 100 μl medium (with or without inhibitors) at double the final concentration from 100 mM stock in DMSO to give a final concentration of not more than 0.1% (v/v) DMSO, or DMSO solvent alone at 0.1% (v/v) as control. The cells were then allowed to grow on for 96 hours to give 80–90% confluence in the control wells. 50 μl MTT (Thiazol blue, Sigma) at 2 mg/ml in Dulbecco's phosphate buffered saline-A, was then added to each well for 3 hours. All medium was aspirated, then the formazan product generated by viable cells was solubilized with 150 μl DMSO. Plates were vortexed and the absorbance at 540 nm determined using a plate reader. Results were expressed as the percentage of 100% (control) proliferation and the IC50 calculated using the line of best fit for a sigmoidal dose response curve with variable slope using Graphpad Prizm software. All determinations were carried out in at least triplicate. […]

[2] = tested on: MCF-10A normal breast cell line; assay: MCF-10A normal cell line cytotoxicity assay; assay type: cell-based; details: Homo sapiens, without TCDD
Procedure: (§3) Cells were maintained in RPMI 1640 with Glutamax 1 (Life Technologies) with 10% (v/v) heat inactivated foetal calf serum (Hybrimax. Sigma), at 37° C., 5% CO2/95% air with 100% humidity and passaged using trypsin/EDTA. 1×10^3 cells were plated out in 100 μl medium per well of 96-well flat-bottomed plates (Fisher). […] The medium was then carefully aspirated and 100 μl fresh medium added. […] 50 μl MTT (Thiazol blue, Sigma) at 2 mg/ml in Dulbecco's phosphate buffered saline-A, was then added to each well for 3 hours. All medium was aspirated, then the formazan product generated by viable cells was solubilized with 150 μl DMSO. Plates were vortexed and the absorbance at 540 nm determined using a plate reader. […] All determinations were carried out in at least triplicate.
(§4) This cell culture based assay is performed using the two cell lines MDA-468 and MCF-10A. The MDA468 cell line is an advanced breast cancer cell line, whilst the MCF-10A cell line is a normal breast cell line.
(§5) This assay was performed using the two cell lines MDA-468 and MCF-10A according to the procedure described above for the MCF-7 assay, but without the addition of TCDD.
(§6) The tumour selectivity differential factor (TSDF) is calculated by dividing the IC50 obtained from the MCF-10A data by the IC50 obtained from the MDA-468 data.

[3] = tested on: MCF-7 cells; assay: MCF-7 cell line (non-induced) cytotoxicity assay, MTT; assay type: cell-based; details: Homo sapiens, MCF7; non-induced MCF-7 cells, 96 hours, MTT; read-out: MCF-7 Cells IC50
Description: as §1, §2
Cells were maintained in RPMI 1640 with Glutamax 1 (Life Technologies) with 10% (v/v) heat inactivated foetal calf serum (Hybrimax. Sigma), at 37° C., 5% CO2/95% air with 100% humidity and passaged using trypsin/EDTA. 1×10^3 cells were plated out in 100 μl medium per well of 96-well flat-bottomed plates (Fisher). After 4 hours to allow adherance, 100 μl of medium containing TCDD (British Greyhound Chromatography; 10 μM stock in DMSO (dimethylsulfoxide)) or medium with 0.2% (v/v) DMSO as control was added to each well to give a final concentration of 10 nM TCDD, 0.1% (v/v) DMSO, for 24 hours to allow maximal CYP expression. The medium was then carefully aspirated and 100 μl fresh medium added. Within 30 minutes test compound was added in quadruplicate in 100 μl medium (with or without inhibitors) at double the final concentration from 100 mM stock in DMSO to give a final concentration of not more than 0.1% (v/v) DMSO, or DMSO solvent alone at 0.1% (v/v) as control. The cells were then allowed to grow on for 96 hours to give 80–90% confluence in the control wells. 50 μl MTT (Thiazol blue, Sigma) at 2 mg/ml in Dulbecco's phosphate buffered saline-A, was then added to each well for 3 hours. All medium was aspirated, then the formazan product generated by viable cells was solubilized with 150 μl DMSO. Plates were vortexed and the absorbance at 540 nm determined using a plate reader. Results were expressed as the percentage of 100% (control) proliferation and the IC50 calculated using the line of best fit for a sigmoidal dose response curve with variable slope using Graphpad Prizm software. All determinations were carried out in at least triplicate.

[4] = tested on: MDA-468 advanced breast cancer cell line; assay: MDA-468 tumour cell line cytotoxicity assay; assay type: cell-based, human
Procedure: as §3, §4, §5, §6

[5] = tested on: K562 human leukemia cell line; details: background, antitumour activity; cited from earlier work

SMILES | increase in the cytotoxic activity by the induction of CYP1B1 ([1]; FIG. 1, un-induced versus TCDD-induced MCF-7 cells) | IC50 ([1]; Homo sapiens, MCF7, MCF-7 cells induced with 10 nM TCDD for 24 hours) | Tumour Selectivity Differential Factor ([1]; MCF-7 IC50 versus TCDD-induced MCF-7 IC50 (Table 1)) | IC50 ([1]; MCF-7 cells induced with 10 nM TCDD for 24 hours) | more toxic to “tumour” cells than to “normal” cells ([1]; TCDD-induced MCF-7 versus MCF-7) | IC50 [2] | IC50 [3] | IC50 ([4]; Homo sapiens, without TCDD) | Tumour Selectivity Differential Factor ([4]; IC50 MCF-10A divided by IC50 MDA-468 (Table 2)) | more toxic to cancer cells than to normal cells (tumour selectivity) ([4]; MDA-468 versus MCF-10A) | IC50 [5]
CCCOc1ccc(/C=C/C(=O)c2cc(OC)cc(OC)c2)cc1 [DMU-175, (E)-1-(4-propoxyphenyl)-3-(3,5-dimethoxyphenyl)prop-1-en-3-one] | 28 fold | 540 nM | 30 | 500 nM | 30 fold | 16 µM | 15 µM | 1400 nM | 11 | 11 fold | –
CC(=O)/C=C/c1ccc(O)cc1 [(E)-1-(4′-hydroxyphenyl)but-1-en-3-one] | – | – | – | – | – | – | – | – | – | – | 60 µM
